Assays:
NCI-H460 = experiment: In vitro primary anticancer activity was determined in NCI-H460 cell line (Lung) at the concentration of […]; format: functional, Homo sapiens
SF-268 = experiment: In vitro primary anticancer activity was determined in SF-268 cell line (CNS) at the concentration of […]; format: functional, Homo sapiens
MCF7 = experiment: In vitro primary anticancer activity was determined in MCF-7 cell line (breast) at the concentration of […]; format: functional, Homo sapiens
PC-6 = experiment: In vitro cytotoxicity was evaluated in PC6 cell line; format: functional, cell-based; settings: Homo sapiens
A498 = experiment: Anticancer activity against one renal cancer (A498 cell line); format: functional; settings: Homo sapiens, read-out: LC50 (the source's name)
UACC-62 = experiment: Anticancer activity against one melanoma cancer (UACC-62 cell line); format: functional; settings: Homo sapiens, read-out: LC50 (the source's name)
NCI-H226 = experiment: Anticancer activity against one non-small cell lung cancer (NCI-H226 cell line); format: functional; settings: Homo sapiens, read-out: LC50 (the source's name)

COc1cc2c(cc1OCCCC(=O)Nc1cc3c4ccccc4ccc3c3ccccc13)N=C[C@@H]1CCCN1C2=O was tested, and the Growth (NCI-H460) was 105%, the Growth (SF-268) was 121% and the Growth (MCF7) was 56%.
COc1cc2c(cc1O)N=C[C@@H]1CCCN1C2=O gave an IC50 (PC-6) of 0.33 µM.
COc1cc2c(cc1OCCCCC(=O)Nc1cc3c4ccccc4ccc3c3ccccc13)N=C[C@@H]1CCCN1C2=O was tested, and the Growth (NCI-H460) was 0%, the CC50 (A498) was 6.29 µM and the Growth (SF-268) was 12%. It also gave a Growth (MCF7) of 1%, a CC50 (UACC-62) of 4.07 µM and a CC50 (NCI-H226) of 4.5 µM.
